Results reported in EP2686338B1, “FUNCTIONALIZED BIOMATERIALS FOR TISSUE REGENERATION” (Nanomed3d S.r.l., priority 2011, dated 2018).
Entries after “also recorded” stand apart in the source; their conditions may differ. Residues, ends and D or L forms follow the SMILES beside them.

Key:
[1] = Rheology (frequency, time and strain sweeps); type: physicochemical
Description: Rheological properties of the self-assembling peptides of the invention were determined using a controlled stress TA Instruments AR-2000ex rheometer (TA Instruments). A cone-and-plate geometry (acrylic cone diameter, 20 mm; angle, 1°; truncation gap 34 µm) was used. Preliminary strain sweeps were performed for each sample to define the linear viscoelastic region, thus ensuring that moduli were independent of strain. Time sweeps, after addition of PBS (1x) were recorded at 25 C (angular frequency ω=1 Hz) and continued till G' plateaued. Frequency sweeps, both for peptide water solutions and for self-assembled scaffolds, were performed at 25 C with the instrument in oscillatory mode at controlled strain of 1 %. Final strain sweeps was performed at 1Hz oscillatory frequency and at 25 C: onset point of failure was calculated by linear interpolation and subsequent determination of the intersection of the G' modes within the linear region and at material failure respectively.

[2] = tested on: murine NSCs; test: Imaging and cell proliferation (MTS) assay on assembled scaffolds, murine NSCs; type: cell-based
Description: (§1) In vitro tests were performed as previously described (8), in order to assess whether the biomaterials (assembled hydrogels) obtained with the SAPs of the present invention influenced NSCs adhesion, survival and/or differentiation. SAPeptides (30 µl for each well at a concentration of 10 mg/ml) were assembled into 96 multiwells two hours before cell. Cells (at a concentration of 2x10^4 cells/cm^2) were seeded on the top-surface of each assembled scaffold. Initially, cells were cultured with basal medium supplemented with βFGF (10 ng/ml), added to enhance neuronal progeny differentiation. At 3 days in vitro (DIV), βFGF medium was replaced with Leukemia Inhibitory Factor (LIF, Chemicon) (20 ng/ml) and Brain Derived Neurotrophic Factor (BDNF, Peprotech) (20 ng/ml). Fresh medium was added every three days. For both viability and differentiation assays positive and negative controls consisted of Cultrex-BME® substrate (R&D systems) (1:100 dilution in basal medium) and untreated bottom well surfaces respectively. Cell viability was quantified via CellTiter 96® Aqueous Proliferation Assay (Promega) at 7 DIV as recommended in the Promega protocol. After calibrating the linear response between the cell number and absorbance values, proliferated cell populations were quantified (n=5) by using a Vmax microplate reader (Molecular Devices) at 490nm wavelength. Values, reported as means ± standard error of the mean, were blanked to their respective controls consisting of same substrates and cell culture media without cells.

[3] = tested on: human NSCs; test: Imaging and cell proliferation (MTS) assay on assembled scaffolds, human NSCs; type: cell-based
Description: as §1

[4] = tested on: murine NSCs; test: Immunofluorescence of differentiated NSC progeny on scaffolds, murine NSCs; type: cell-based; conditions: 1% scaffold; compared to Cultrex positive control
Description: as §1
(§2) Immunofluorescence tests were performed for assaying the phenotypes of the differentiated human and murine NSC progenies. In the case of KLP and Ac-KLP just murine NSC have been used. Ac-KLP and KLP scaffolds were prepared at different concentrations in order to display three different stiffness values (viz. 100, 500 and 1000 Pa). This was done to assess the influence of scaffold concentration (and consequently its stiffness) over NSC differentiation. All the other peptides were tested at 1% v/w concentration instead. The following antibodies were used: rabbit polyclonal against GFAP (1:500, DakoCytomation) for astrocytes, mouse monoclonal against βIII-Tubulin (1:500, Covance) for neurons, mouse monoclonal against GalC (1:200, Chemicon) and O4 (1:200, Chemicon) for oligodendrocyes. Secondary Abs were Goat anti Mouse Alexa 488 (1:1000, Molecular Probes), Goat anti Mouse Cy3 (1:1000, Jackson Immunoresearch), Goat anti Rabbit Cy3 (1:1000, Jackson Immunoresearch). Cell nuclei were counterstained with DAPI (Molecular Probes). Quantitative analyses were performed by counting 100-300 cells for each of 9 randomly chosen fields over a total of 3 independent experiments. Phase contrast and fluorescence images of the adhering cells were acquired via Zeiss microscopes Axioplan 2 and ApoTome System at one week after seeding.

[5] = tested on: human NSCs; test: Immunofluorescence of differentiated NSC progeny on scaffolds, human NSCs; type: cell-based; conditions: 1% scaffold; compared to Cultrex positive control
Description: as §1
as §2, with “Cell nuclei were counterstained with DAPI (Molecular Probes).” left out

[6] = tested on: acute contusive spinal cord injury (SCI); test: Acute contusive spinal cord injury model, BBB locomotor rating; type: in vivo, Sprague-Dawley rats
Description: (§3) 20 female Sprague-Dawley rats weighting 200-250 gr (Charles River Laboratories) were randomly divided into two groups: 1) spinal cord injured animals treated with Ac-FAQ and 2) spinal cord injured animals treated with the saline solution (control group). Rats were anesthetized with an intraperitoneal injection of ketamine (80 mg/kg) and xylazine (10 mg/kg). After laminectomy at the T9-T10 level, the exposed spinal cord was lesioned (Figure 8A1) by a 10-gram rod dropped from a height of 25 mm by using a MASCIS Impactor device (WM Keck Center for Collaborative Neuroscience, Rutgers University), as previously described 33. Immediately after injury, animals were injected with Ac-FAQ (1% acqueous solution) or the saline solution using an Hamilton syringe held via a micromanipulator (Figure 8A2). The biomaterial or the distilled water was delivered into the lesion site at distances of 500 µm, and at each interval two injections of 0,5 µl each were made, for a total dose of 3 µl. After injection, the muscles were sutured and the skin was closed with wound clips. […]
Hindlimb recovery was assessed by using the Basso, Beattie, Bresnahan (BBB) Locomotor Rating Scale. Starting from 1 week post-injury, every 3-4 days each rat was observed and recorded with a digital video camera for 4 min in an open field. Rats were evaluated in double-blind experimental settings. […]

[7] = tested on: acute contusive spinal cord injury (SCI); test: Acute contusive spinal cord injury model, histology and morphometrical quantification; type: in vivo, Sprague-Dawley rats; conditions: 8 weeks after injury
Description: as §3
Quantitative analysis was performed on longitudinal sections of rat spinal cords, spanning between T7 and T12 and including the injury site (T9-T10).
The presence of axons expressing Gap-43 and βIII within the cyst was investigated. Gap-43 positive fibers were quantified and the relative value of GAP-43 immunopositive area was expressed as percentage of the total cyst area.
Injured tissue was quantified in seven-to-sixteen longitudinal sections per animal, depending on the cyst extent. […] Sections were stained with hematoxylin/eosin and images were captured (Axioplan2 Zeiss microscope) at 5x magnification, then single images were merged, converted into binary pictures and cavities into the injured area were quantified via Image J software (http://rsb.info.nih.gov/ij/). We measured also the whole injured tissue size. […]
Axon regeneration/sprouting, into the cyst area, was quantified on six longitudinal sections (spaced 160 µm) per animal via GAP-43 (1:200, Millipore) and Cy3-conjugated antibodies (1:1000, Jackson). […]

With `CC(=O)N[C@@H](Cc1ccccc1)C(=O)N[C@@H](C)C(=O)N[C@@H](CCC(N)=O)C(=O)N[C@@H](CCCNC(=N)N)C(=O)N[C@H](C(=O)N1CCC[C@H]1C(=O)N1CCC[C@H]1C(=O)NCC(=O)NCC(=O)NCC(=O)N[C@@H](CC(C)C)C(=O)N[C@@H](CC(=O)O)C(=O)N[C@@H](CC(C)C)C(=O)N[C@@H](CCCCN)C(=O)N[C@@H](CC(C)C)C(=O)N[C@@H](CC(=O)O)C(=O)N[C@@H](CC(C)C)C(=O)N[C@@H](CCCCN)C(=O)N[C@@H](CC(C)C)C(=O)N[C@@H](CC(=O)O)C(=O)N[C@@H](CC(C)C)C(=O)N[C@@H](CCCCN)C(N)=O)C(C)C` [Ac-FAQ, Ac-FAQRVPP-GGG-LDLKLDLKLDLK-CONH2] (Ac-FAQRVPPGGGLDLKLDLKLDLK-NH2) the “G' pre-assembling” value ([1]; average storage modulus of SAPeptide solution, 1% w/v, 1-100 Hz, before PBS) was 5.11 Pa, the “G' post-assembling” value ([1]; average storage modulus of jellified scaffold, 1% w/v, 1-100 Hz, after PBS) was 551.9 Pa and the “Onset point (% strain)” value ([1]; strain percentage at rupture, strain sweep at 1 Hz, 25 C) was 22.75%. For the same compound, the “cell morphology, adhesion and spreading” value ([2]; 7 DIV on assembled hydrogels) was “spread and branched cells”, the “cell viability (MTS, cell population)” value ([2]; 7 DIV, scaffolds 10 mg/ml, vs control, P<0.005, n=5) was “cell population was bigger” and the “cell morphology, adhesion and spreading” value ([3]; 7 DIV on assembled hydrogels) was “spread and branched cells”. For the same compound, the “cell viability (MTS, cell population)” value ([3]; 7 DIV, scaffolds 10 mg/ml, vs control, P<0.03, n=5) was “cell population was bigger”, the number of neurons [4] was “significantly higher” and the number of oligodendrocytes [4] was “significantly higher”. For the same compound, the number of neurons [5] was “significantly higher”, the number of oligodendrocytes [5] was “significantly higher” and the BBB score ([6]; 1% aqueous solution, 3 µl into lesion site right after injury, week 6,7 and 8 after injury, mean ± SEM) was 11.95 ± 0.30. For the same compound, the “hindlimb motor recovery in comparison to controls” value ([6]; BBB scale, from week 6 after injury, p<0.05) was “significant improvement; also recorded: significantly improved locomotor recovery”, the “Average cumulative cyst area” value ([7]; hematoxylin/eosin longitudinal sections, not significant vs controls) was 28.30 ± 6.70 mm^2 and the “cavities size within the cyst, excluding strands of trabeculae” value ([7]; not significant vs control) was 16.77 ± 4.50 mm^2. The “average immunopositivity for GAP-43” value ([7]; p<0.05 vs saline-injected controls) was 15.46 ± 1.94 % of the whole cyst area.
